Source: US20240207302A1, “ANTIVIRAL COMPOUNDS, METHODS FOR THE MANUFACTURING OF COMPOUNDS, ANTIVIRAL PHARMACEUTICAL COMPOSITION, USE OF THE COMPOUNDS AND METHOD FOR THE ORAL TREATMENT OF CORONAVIRUS INFECTION AND RELATED DISEASES THEREOF” (priority 2021, published 2024)

Legend:
[1] = system: SARS-COV-2; test: SARS-COV-2 viral RNA synthesis in Vero cells (real time RT-PCR); type: cell-based; conditions: Severe acute respiratory syndrome coronavirus 2; Vero (MOI 0.01 24 h); read-out: EC50
[2] = system: SARS-COV-2; test: SARS-COV-2 viral RNA synthesis in HuH-7 cells (real time RT-PCR); type: cell-based
[3] = Cytotoxicity assay (XTT) in Huh-7 cells; type: cell-based; conditions: human
Description: In parallel, cytotoxicity assays were performed. Monolayers of 1.5×10^4 cells in 96-well plates were treated for 3 days with various concentrations (semi-log dilutions from 1,000 to 10 μM) of the antiviral drugs. Then, 5 mg/mL 2,3-bis-(2-methoxy-4-nitro-5-sulfophenyl)-2H-tetrazolium-5-carboxanilide (XTT) in DMEM was added to the cells in the presence of 0.01% of N-methyl dibenzopyrazine methyl sulfate (PMS).

[4] = Pharmacokinetics of MB-905 in plasma of the rat; type: in vivo
Description: The pharmacokinetic assay was performed by using mice of the CDI strain (20-30 g) or rat Sprague Dawley (250-300 g) of both sexes from the Center of Innovation and Preclinical Studies (CIEnP) vivarium. […] After oral […] administration, blood was collected at times of 0.25, 0.5, 1, 2, 4, 8 and 24, while after intravenous administration the collection times were 0.083, 0.25, 0.5, 1, 2 and 4 hours. […] The pharmacokinetic parameters evaluated were: AUC (AUC 0-T or, AUC 0-∞), Cmax, Tmax, T1/2, volume of distribution, clearance, elimination constant and bioavailability.

[5] = Pharmacokinetics of MB-905 in three pre-formulations in mice; type: in vivo
Source text: FIG. 21. Pharmacokinetics of MB-905 in three pre-formulations in mice.
Thus, the pre-formulation was used for most subsequent in vivo studies.

[6] = both sexes, Sprague Dawley, rat, plasma, po, 10 mg/kg, 10 mg/kg (v.o.)
[7] = both sexes, Sprague Dawley, rat, plasma, po, 30 mg/kg, 30 mg/kg (v.o.)
[8] = mouse, plasma, po, 3 mg/kg, 5% Carboxymethylcellulose, 3 mg/kg (v.o.)
[9] = mouse, plasma, po, 3 mg/kg, 5% Tween80 + 95% PEG400, 3 mg/kg (p.o.)
[10] = mouse, plasma, po, 3 mg/kg, 5% ethanol, 30% Propylene Glycol, 45% PEG 400, 20% water, 3 mg/kg (v.o.)
[11] = mouse, plasma, po, 30 mg/kg, 5% Carboxymethylcellulose, 30 mg/kg (p.o.)
[12] = mouse, plasma, po, 30 mg/kg, 5% Tween80 + 95% PEG400, 30 mg/kg (p.o.)
[13] = mouse, plasma, po, 30 mg/kg, 5% ethanol, 30% Propylene Glycol, 45% PEG 400, 20% water, 30 mg/kg (p.o.)
[14] = mouse, plasma, po, 550 mg/kg, 5% ethanol, 30% Propylene Glycol, 45% PEG 400, 20% water, 550 mg/kg (p.o.)

With `c1coc(CNc2ncnc3[nH]cnc23)c1` [MB-905, kinetin] the EC50 [1] was 5 µM, the EC50 ([2]; Severe acute respiratory syndrome coronavirus 2, Huh-7 (MOI 0.1 48 h), read-out: EC50) was 0.1 µM and the “anti-coronavirus activity with simultaneous adenine” value ([2]; huh-7, adenine at 10 μM) was “prevented”. For the same compound, the “anti-coronavirus activity (SARS-COV-2 replication)” value ([2]; huh-7, treatment just after inoculation) was “concentration dependent inhibition”, the CC50 at 3 days [3] was 560 µM and the F ([4]; 3 mg/kg (i.v.)) was 100%. For the same compound, the Cmax ([4]; 3 mg/kg (i.v.), 3 mg/kg) was 123.61 ng/mL, the Vz ([4]; 3 mg/kg (i.v.), 3 mg/kg) was 10.40 L/kg and the CL ([4]; 10 mg/kg (v.o.)) was 241.09 mL/min/kg. For the same compound, the Ke ([4]; 10 mg/kg (v.o.)) was 0.47 h⁻¹, the Vz ([4]; 10 mg/kg (v.o.)) was 30.37 L/kg and the Cmax ([4]; 10 mg/kg (v.o.), 10 mg/kg) was 549.96 ng/mL. It also gave an F ([4]; 10 mg/kg (v.o.), 10 mg/kg) of 98.8%, a T1/2 ([4]; 10 mg/kg (v.o.), 10 mg/kg) of 1.45 h and an F ([4]; 30 mg/kg (v.o.)) of 64.7%. It also gave a Ke ([4]; 30 mg/kg (v.o.)) of 0.18 h⁻¹, a Vz ([4]; 30 mg/kg (v.o.)) of 109.18 L/kg and a CL ([4]; 30 mg/kg (v.o.), 30 mg/kg) of 330.57 mL/min/kg. For the same compound, the Cmax ([4]; both sexes, Sprague Dawley, rat, plasma, iv, 3 mg/kg, 3 mg/kg (i.v.), read-out: Cmax) was 99.4 ng/mL, the Vd ([4]; both sexes, Sprague Dawley, rat, plasma, iv, 3 mg/kg, 3 mg/kg (i.v.), read-out: Vz) was 13.4 L/kg and the AUC [4, 6] was 762 ng·h/mL. It also gave an AUC(0-t) [4, 6] of 666 ng·h/mL, a Tmax [4, 6] of 0.25 h and a half-life [4, 6] of 1.46 h. It also gave a Cmax ([4]; both sexes, Sprague Dawley, rat, plasma, po, 10 mg/kg, 10 mg/kg (v.o.), read-out: Cmax) of 545 ng/mL, an AUC [4, 7] of 1500 ng·h/mL and an AUC(0-t) [4, 7] of 1500 ng·h/mL. It also gave a Cmax ([5]; 5% ethanol, 30% Propylene Glycol, 45% PEG 400, 20% water, 30 mg/kg (p.o.)) of 569.97 ng/mL, a Cmax ([5]; 5% ethanol, 30% Propylene Glycol, 45% PEG 400, 20% water, 550 mg/kg (p.o.)) of 1053.37 ng/mL and a Tmax ([5]; CD1, mouse, plasma, po, 3 mg/kg, 5% Carboxymethylcellulose, 3 mg/kg (v.o.)) of 0.25 h. It also gave a Cmax ([5]; CD1, mouse, plasma, po, 3 mg/kg, 5% Carboxymethylcellulose, 3 mg/kg (v.o.), read-out: Cmax) of 70.2 ng/mL, a Tmax ([5]; CD1, mouse, plasma, po, 3 mg/kg, 5% Tween80 + 95% PEG400, 3 mg/kg (p.o.)) of 0.25 h and a Cmax ([5]; CD1, mouse, plasma, po, 3 mg/kg, 5% Tween80 + 95% PEG400, 3 mg/kg (p.o.), read-out: Cmax) of 60.8 ng/mL. The Tmax ([5]; CD1, mouse, plasma, po, 3 mg/kg, 5% ethanol, 30% Propylene Glycol, 45% PEG 400, 20% water, 3 mg/kg (v.o.)) was 0.25 h, the Cmax ([5]; CD1, mouse, plasma, po, 3 mg/kg, 5% ethanol, 30% Propylene Glycol, 45% PEG 400, 20% water, 3 mg/kg (v.o.), read-out: Cmax) was 64 ng/mL and the Tmax ([5]; CD1, mouse, plasma, po, 30 mg/kg, 5% Carboxymethylcellulose, 30 mg/kg (p.o.)) was 0.25 h. The Cmax ([5]; CD1, mouse, plasma, po, 30 mg/kg, 5% Carboxymethylcellulose, 30 mg/kg (p.o.), read-out: Cmax) was 504 ng/mL, the Tmax ([5]; CD1, mouse, plasma, po, 30 mg/kg, 5% Tween80 + 95% PEG400, 30 mg/kg (p.o.)) was 0.25 h and the Cmax ([5]; CD1, mouse, plasma, po, 30 mg/kg, 5% Tween80 + 95% PEG400, 30 mg/kg (p.o.), read-out: Cmax) was 507 ng/mL. It also gave a Tmax ([5]; CD1, mouse, plasma, po, 300 mg/kg, 5% Carboxymethylcellulose, 300 mg/kg (p.o.)) of 8 h, a Cmax ([5]; CD1, mouse, plasma, po, 300 mg/kg, 5% Carboxymethylcellulose, 300 mg/kg (p.o.), read-out: Cmax) of 1020 ng/mL and a Tmax ([5]; CD1, mouse, plasma, po, 300 mg/kg, 5% Tween80 + 95% PEG400, 300 mg/kg (p.o.)) of 0.25 h. The Cmax ([5]; CD1, mouse, plasma, po, 300 mg/kg, 5% Tween80 + 95% PEG400, 300 mg/kg (p.o.), read-out: Cmax) was 1030 ng/mL, the AUC [5, 8] was 107 ng·h/mL and the half-life [5, 8] was 2.18 h. It also gave an AUC [5, 9] of 153 ng·h/mL, a half-life [5, 9] of 2.63 h and an AUC [5, 10] of 98.4 ng·h/mL. For the same compound, the half-life [5, 10] was 1.92 h, the AUC [5, 11] was 525 ng·h/mL and the half-life [5, 11] was 1.67 h. For the same compound, the AUC [5, 12] was 1110 ng·h/mL, the half-life [5, 12] was 2.27 h and the AUC [5, 13] was 763 ng·h/mL. For the same compound, the Tmax [5, 13] was 0.25 h, the half-life [5, 13] was 3.61 h and the AUC ([5]; mouse, plasma, po, 300 mg/kg, 5% Carboxymethylcellulose, 300 mg/kg (p.o.)) was 14800 ng·h/mL. For the same compound, the AUC ([5]; mouse, plasma, po, 300 mg/kg, 5% Tween80 + 95% PEG400, 300 mg/kg (p.o.)) was 11500 ng·h/mL, the AUC [5, 14] was 11600 ng·h/mL and the Tmax [5, 14] was 1 h.
